# Test results published in paper PMC10976160, “Comparative Pharmacokinetics Research of 13 Bioactive Components of Jieyu Pills in Control and Attention Deficit Hyperactivity Disorder Model Rats Based on UPLC-Orbitrap Fusion MS” (Molecules, 2024).
# Like-named read-outs stand apart in the source and are kept apart here.
# Tests used:
# [1] = Pharmacokinetics in ADHD model rats after gavage of JYPs; type: in vivo, SHR rats (ADHD model); details: for peak time: oral JYPs; for AUC(0-inf) / AUC(0-t) / Cmax / Tmax / half-life / MRT last / MRT inf: male, SHR, rat, plasma; for MRT last: read-out: MRT(0-t); for MRT inf: read-out: MRT(0-∞)
# Procedure: Based on the established analytical method for plasma samples, a pharmacokinetic study was conducted on 13 constituents in the plasma of ADHD model rats after gavage of JYPs (Figure 3). The linearity of ln(AUC0-t)–ln(dose) and ln(Cmax)–ln(dose) was analyzed in the same way.
# For the control experiment, healthy male Sprague Dawley (SD) rats of SPF grade ([…] ± 20 g) were purchased from Sipeifu (Beijing) Biotechnology Co., Ltd. (Beijing, China), Animal Quality Certificate No. 110324220102348616. For the ADHD model rats, healthy male SHR rats of SPF grade, weighing 220 ± 20 g, were purchased from SBF (Beijing) Biotechnology Co., Ltd. (Beijing, China), License No. SCXK (Yu) 2019-0010. The animals were accommodated in the Animal Center of Henan University of Traditional Chinese Medicine, which successfully underwent an ethical audit with ethics number DWLL202208003. The animals were bred under controlled conditions at a temperature of 24 °C and a relative humidity of 50 ± 2%. Before the experiment, the animals abstained from eating for 12 h and had unrestricted access to water. The feeding and experimental research conducted on the experimental animals adhered to the laws outlined in the Management of Experimental Animals in Henan Province.
# JYPs were ground into a fine powder and sieved through 60-mesh sieves; then, 20 g of fine JYP powder was taken, having been weighed precisely. A precise volume of 50 mL of pure water was added and mixed well to prepare a 0.4 g/mL suspension solution of JYPs, which was then stored in the refrigerator at 4 °C.
# This study involved 24 healthy male SD rats with a body mass of 220 ± 20 g and 24 healthy male ADHD rats with a body mass of 220 ± 20 g. Subjects abstained from food for a duration of 12 h before the experiment and consumed water without restriction. Both kinds of rats were randomly divided into four groups: a blank group, given an equal dose of water intragastrically, and 3 different administration groups: rats given the equivalent human dose of JYPs by gavage in doses of 1.080 g/kg/d, 2.160 g/kg/d, and 4.320 g/kg/d. Tail vein blood was collected at 0.083, 0.25, 0.5, 0.75, 1, 1.5, 2, 3, 4, 6, 8, 12, 18, and 24 h after dosing. About 0.5 mL of blood was collected in sodium heparin centrifugal tubes, then centrifuged at 4 °C for 10 min at a speed of 3500r/min. We took the upper layer and placed it at −80 °C for preservation.
# We took 200 μL of plasma, added 600 μL of methanol solution and 50 μL of internal standard (100 ng/mL), and subjected it to shaking for 5 min, followed by centrifugation at 4 °C at 12,000 r/min for 10 min. The supernatant was collected and allowed to dry, then reconstituted with 50 μL of 50% methanol and centrifuged at 4 °C at 14,000 r/min for a further 10 min. The supernatant after this process was taken as the test solution. A volume of 5 μL was used for UPLC-MS analysis. The drug concentration in plasma was calculated with the aid of the internal standard.
# Chromatographic conditions: Hypersil GOLD (100 × 2.1 mm, 1.9 μm) column; column temperature 35 °C; mobile phase acetonitrile (A)/0.1% formic acid aqueous solution (B); gradient elution; gradient elution program: 0–0.5 min (95% B–95% B), 0.5–8 min (95% B–50% B), 8–14 min (50% B–20% B), 14–20 min (20% B–5% B), 20–22 min (5% B–5% B), 22–25 min (95% B–95% B); flow rate 0.2 mL/min; injection volume 5 μL. The ion source was electrospray ionization (ESI), with positive and negative ion mode spray voltages of 3.50 and 3.0 kV, an ion transfer tube temperature of 300 °C, nitrogen as the carrier gas, a sheath gas pressure of 35 arb, an auxiliary gas pressure of 8 arb, and an auxiliary heater temperature of 275 °C.
# [2] = design: method as in PMID 32135035; details: rats, oral dosing; cited from earlier work
# [3] = ADHD model rats, oral JYPs high dose 4.320 g/kg/d (3rd of 3 values)
# [4] = ADHD model rats, oral JYPs low dose 1.080 g/kg/d (1st of 3 values)
# [5] = ADHD model rats, oral JYPs medium dose 2.160 g/kg/d (2nd of 3 values)
# [6] = 1.08 g/kg/day, ADHD model rats, oral JYPs low dose 1.080 g/kg/d (1st of 3 values)
# [7] = 2.16 g/kg/day, ADHD model rats, oral JYPs medium dose 2.160 g/kg/d (2nd of 3 values)
# [8] = 4.32 g/kg/day, ADHD model rats, oral JYPs high dose 4.320 g/kg/d (3rd of 3 values)
SMILES,"AUMC(0-t) [1, 3]","AUMC(0-ꝏ) [1, 3]","AUMC(0-t) [1, 4]","AUMC(0-ꝏ) [1, 4]","AUMC(0-t) [1, 5]","AUMC(0-ꝏ) [1, 5]","AUC(0-inf) [1, 6]","AUC(0-t) [1, 6]","Cmax [1, 6]","Tmax [1, 6]","half-life [1, 6]","MRT last [1, 6]","MRT inf [1, 6]","AUC(0-inf) [1, 7]","AUC(0-t) [1, 7]","Cmax [1, 7]","Tmax [1, 7]","MRT last [1, 7]","MRT inf [1, 7]","AUC(0-inf) [1, 8]",also measured
C[C@H]1O[C@@H](O[C@H]2CC[C@@]3(C)[C@@H](CC[C@]4(C)[C@@H]3C=C[C@]35OC[C@@]6(CCC(C)(C)C[C@H]63)[C@@H](O)C[C@]54C)[C@]2(C)CO)[C@H](O)[C@@H](O[C@@H]2O[C@H](CO)[C@@H](O)[C@H](O)[C@H]2O)[C@H]1O [Saikosaponin A],2395.92± 288.80 ng/mL*(h)²,5783.46± 3073.92 ng/mL*(h)²,1392.40± 460.59 ng/mL*(h)²,4853.64± 3957.39 ng/mL*(h)²,1937.54± 771.89 ng/mL*(h)²,5558.75± 2961.42 ng/mL*(h)²,233 ± 91.2 ng·h/mL,164 ± 57.5 ng·h/mL,40.9 ± 22.9 ng/mL,30 ± 9.6 min,797 ± 424 min,8.75 ± 1.6 h,19.4 ± 9.93 h,324 ± 131 ng·h/mL,240 ± 96.6 ng·h/mL,53 ± 19.2 ng/mL,47.4 ± 11.4 min,8.13 ± 1.23 h,16.8 ± 3.55 h,387 ± 78.7 ng·h/mL,"peak time ([1]; ADHD model rats): less than 1 h; Clearances [1, 3]: 2855.71 ± 621.15 mL/h; Vss [1, 3]: 40360.07 ± 12917.92 mL; Clearances [1, 4]: 1291.22 ± 525.61 mL/h; Vss [1, 4]: 23782.60 ± 13625.69 mL; Vss [1, 5]: 35282.72 ± 25449.21 mL; MRT(0-t), ADHD rats compared with control rats ([1]; all concentrations): significantly higher; AUC(0-t), model rats compared with control rats ([1]; high-dose administration group): significantly greater; half-life [1, 7]: 734 ± 169 min; AUC(0-t) [1, 8]: 307 ± 55.6 ng·h/mL; Cmax [1, 8]: 73.1 ± 22.6 ng/mL; Tmax [1, 8]: 34.8 ± 7.8 min; half-life [1, 8]: 618 ± 254 min; MRT last [1, 8]: 7.95 ± 1.2 h; MRT inf [1, 8]: 14.5 ± 5.42 h"
C[C@H]1O[C@@H](O[C@H]2CC[C@@]3(C)[C@@H](CC[C@]4(C)[C@@H]3C=C[C@]35OC[C@@]6(CCC(C)(C)C[C@H]63)[C@H](O)C[C@]54C)[C@]2(C)CO)[C@H](O)[C@@H](O[C@@H]2O[C@H](CO)[C@@H](O)[C@H](O)[C@H]2O)[C@H]1O [Saikosaponin D],1294.18± 361.60 ng/mL*(h)²,3035.93± 850.28 ng/mL*(h)²,761.68± 201.22 ng/mL*(h)²,2701.81± 992.13 ng/mL*(h)²,1149.72± 377.93 ng/mL*(h)²,3004.18± 2085.30 ng/mL*(h)²,132 ± 32.3 ng·h/mL,91.3 ± 24.6 ng·h/mL,22.6 ± 2.41 ng/mL,34.8 ± 7.8 min,899 ± 354 min,8.43 ± 0.96 h,20.3 ± 5.6 h,188 ± 55.2 ng·h/mL,145 ± 32.8 ng·h/mL,33.1 ± 3.36 ng/mL,32.4 ± 15 min,7.8 ± 1.36 h,14.8 ± 6.52 h,201 ± 50 ng·h/mL,"peak time ([1]; ADHD model rats): less than 1 h; Clearances [1, 3]: 3506.08 ± 856.33 mL/h; Vss [1, 3]: 53202.65 ± 17657.23 mL; Clearances [1, 4]: 1343.52 ± 399.07 mL/h; Vss [1, 4]: 26784.08 ± 8767.24 mL; Clearances [1, 5]: 1952.91 ± 715.40 mL/h; Vss [1, 5]: 26532.70 ± 7619.14 mL; MRT, model rats compared with control rats ([1]; high-dose): higher; half-life [1, 7]: 637 ± 298 min; AUC(0-t) [1, 8]: 156 ± 38.6 ng·h/mL; Cmax [1, 8]: 41.5 ± 12.4 ng/mL; Tmax [1, 8]: 22.8 ± 8.4 min; half-life [1, 8]: 619 ± 153 min; MRT last [1, 8]: 8.26 ± 0.54 h; MRT inf [1, 8]: 15.2 ± 2.75 h; AUC, ADHD model rats compared with control rats ([1]; medium- and high-dose): higher"
CCC/C=C1\OC(=O)C2=C1CCC=C2 [Z-Ligustilide],458.69± 201.28 ng/mL*(h)²,1348.99± 756.73 ng/mL*(h)²,322.64± 100.23 ng/mL*(h)²,870.35± 311.46 ng/mL*(h)²,383.83± 150.84 ng/mL*(h)²,1224.58± 657.13 ng/mL*(h)²,49.3 ± 14.7 ng·h/mL,36.7 ± 18.2 ng·h/mL,4.07 ± 1.85 ng/mL,100 ± 72.6 min,767 ± 192 min,8.9 ± 1.12 h,17.9 ± 4.8 h,62.2 ± 24.5 ng·h/mL,44.7 ± 18.2 ng·h/mL,5.57 ± 2.26 ng/mL,67.8 ± 26.4 min,8.72 ± 0.8 h,20 ± 7.8 h,69.7 ± 27.1 ng·h/mL,"t1/2 [1, 5]: 14.63 ± 7.18 h; AUC(0-t) [1, 8]: 49.5 ± 16.8 ng·h/mL; Cmax [1, 8]: 6.63 ± 1.78 ng/mL; Tmax [1, 8]: 57.6 ± 6 min; half-life [1, 8]: 749 ± 223 min; MRT last [1, 8]: 8.9 ± 1.5 h; MRT inf [1, 8]: 18 ± 5 h; oral bioavailability [2]: relatively poor"
